Assay results from US20090176817A1, “Method of Treatment of Diarrhea-Predominant Irritable Bowel Syndrome in a Subject” (priority 2005, published 2009).
Read-outs that look alike come from different tables or passages of the source.

Legend:
clinical [1] = conditions: human, in vivo, po
Description: Two randomized, double-blind, placebo controlled, rising dose, crossover studies evaluated the single-dose pharmacokinetics of oral cilansetron over a 4 mg to 64 mg dose range. In one study, 24 male subjects (aged 21-36 years) received, at intervals of […], single oral doses of 4, 8, and 16 mg cilansetron in ascending order and a randomized placebo. In the other study, 24 male subjects received, at intervals of ≧1 week, single oral doses of 16, 32, and 64 mg cilansetron in ascending order and a randomized placebo. All doses were administered under fasted conditions. […] Renal excretion of cilansetron was negligible across all doses, with undetectable or very low amounts (<1% of the dose) excreted unchanged in urine.
Data for the evaluation of dose proportionality of oral cilansetron is available from three studies which have evaluated the pharmacokinetics of single doses over a 2 mg to 64 mg dose range. Two randomized, double-blind, placebo controlled, rising dose, crossover studies, in 24 male subjects each, evaluated the single dose pharmacokinetics of oral cilansetron (capsules) over a 4-16 mg and 16-64 mg dose range, respectively. In each study, subjects received, at intervals of ≧1 week, single oral doses of cilansetron in ascending order and a randomized placebo. All doses were administered under fasted conditions. A third open-label, randomized, parallel-group study in 36 male and female subjects, evaluated the single dose pharmacokinetics of a cilansetron 2 mg tablet administered under fed conditions. FIG. 16 to FIG. 19 present box plots of cilansetron AUC(0-inf) and Cmax from these three studies (males only), and corresponding dose-normalized values (normalized to a 1 mg dose). […] Table 2.7.2.3.14 presents descriptive statistics of cilansetron dose-normalized AUC and Cmax in these studies, and the results of statistical comparisons between doses.

[2] = tested on: patients with malignant tumors; test: Study S.241.2.101: cisplatin-induced nausea and vomiting; format: in vivo, human; conditions: IV 8 mg TID
Description: The effect of cilansetron on nausea and vomiting has been studied in 2 clinical studies in cancer patients. Both studies were randomized, singleblind, positive-controlled, parallel-group, pilot studies in male and female patients with malignant tumors, to investigate the effect of cilansetron on cytostatic-induced nausea and vomiting. In both studies, patients were on their first cycle of chemotherapy and were being treated with cisplatin (275 mg/m2 as a single dose in Study S.24 1.2.10 1 and […] for 5 days in Study K.24 1 S O 17). Patients in Study S.24 1.2.10 1 were aged 40-74 years (ITT population=16) and patients in Study K.24 1 S O 17 were aged 39-74 years (ITT population=19). In both studies, patients were randomized to receive either […] or IV ondansetron 8 mg TID for 1 day (Study S.241.2.101) or 5 days (Study K.2415017), corresponding to the day(s) of their cisplatin administration. If nausea and vomiting were completely controlled on a treatment day, the second and/or third doses of cilansetron or ondansetron could be omitted on that day. The primary efficacy parameter in both studies was the combination of the occurrence of vomiting and the severity of nausea, with a responder being defined as a patient with no vomiting and not more than mild nausea during the treatment day(s). […]

[3] = tested on: diarrhea-predominant IBS subjects; test: Study S241.3.006: safety; format: in vivo, human; conditions: for Constipation: human, in vivo, 12 weeks
Description: Safety was evaluated by physical examination, ECG, vital signs, clinical laboratory evaluations, concomitant medications, and AEs. An independent Gastrointestinal Events Review Board (GERB) was established to advise on gastrointestinal (GI) AEs during the course of the study and other safety events as considered necessary.

[4] = human, in vivo
Description: Subjects were randomized to receive a cilansetron 8 mg capsule after an overnight fast and a cilansetron 8 mg capsule after a high-fat breakfast during the two treatment periods, with a 3-day washout between periods. Serial blood sampling and urine collection was performed up to 24 hours following each dose, and cilansetron pharmacokinetic parameters were evaluated.

CYP3A5 = conditions: hepatocytes
clinical [5] = conditions: human, in vivo; for half-life: T½
Description: Two randomized, double-blind, placebo controlled, balanced incomplete block design, crossover studies evaluated the single- and multiple-dose pharmacokinetics of oral cilansetron over a 8 mg to 32 mg dose range. In both studies, subjects were randomized to receive two of three treatments during 2 treatment periods. In one study (12 male and 13 female subjects, aged 23 to 36 years), subjects received 8 mg cilansetron, 16 mg cilansetron, or placebo, while in another study (12 males and 13 females, aged 23 to 41 years), subjects received 16 mg cilansetron, 32 mg cilansetron, or placebo. During each treatment period, subjects received a single dose of their assigned treatment on the first day, followed by a 3-day washout, after which they received the same treatment TID for 5 days.
There was a 5-6 day washout period between treatment periods. Doses on the mornings of pharmacokinetic days were administered under fasted conditions. Serial blood sampling and urine collection was performed up to 12 hours following morning dosing on the first day (single dose) and on the last multiple dosing day of each treatment period, and cilansetron pharmacokinetic parameters were evaluated.
In two randomized, double-blind, placebo controlled, balanced incomplete block design, crossover studies evaluating the single- and multiple-dose pharmacokinetics of oral cilansetron over a 8 mg to 32 mg dose range, subjects were randomized to receive two of three treatments during 2 treatment periods. In Study S.241.1.101; (12 male and 13 female subjects, aged 23 to 36 years), subjects received 8 mg cilansetron, 16 mg cilansetron, or placebo, while in Study S.24 1.1.102; (12 males and 13 females, aged 23 to 41 years), subjects received 16 mg cilansetron, 32 mg cilansetron, or placebo. During each treatment period, subjects received a single dose of their assigned treatment on the first day, followed by a 3-day washout, after which they received the same treatment TID for 5 days. There was a 5-6 day washout period between treatment periods. Doses on the mornings of pharmacokinetic days were administered under fasted conditions. Serial blood sampling and urine collection was performed up to 12 hours following morning dosing on the first day (single dose) and on the last multiple dosing day of each treatment period, and cilansetron pharmacokinetic parameters were evaluated.

Cc1nccn1C[C@H]1CCc2c(c3cccc4c3n2CCC4)C1=O [Cilansetron, (R)-(−)-4,5,6,8,9,10-hexahydro-10-[(2-methyl-1H-imidazol-1-yl)methyl]-11H-pyrido-[3,2,1-jk]-carbazol-11-one]
CL/F (clinical [1]; 32 mg): 2487 (79) mL/min | CL/F (clinical [1]; 64 mg): 1910 (60) mL/min | DN-AUC(0-inf) ratio 32 mg/16 mg (clinical [1]; male): 127% | DN-AUC(0-inf) ratio 64 mg/16 mg (clinical [1]; male): 158% | DN-AUC(0-inf) ratio 64 mg/32 mg (clinical [1]; male): 125% | DN-AUC(0-last) ratio 32 mg/16 mg (clinical [1]; male): 132% | DN-AUC(0-last) ratio 64 mg/16 mg (clinical [1]; male): 168% | DN-AUC(0-last) ratio 64 mg/32 mg (clinical [1]; male): 127% | DN-Cmax ratio 32 mg/16 mg (clinical [1]; male): 127% | DN-Cmax ratio 64 mg/16 mg (clinical [1]; male): 164% | DN-Cmax ratio 64 mg/32 mg (clinical [1]; male): 129% | CL renal (clinical [1]; male, 16 mg): 3.39 mL/min | Tmax (clinical [1]; male, 16 mg): 1 h | AUC(0-inf) (clinical [1]; male, 32 mg): 330 ng·h/mL | AUC(0-t) (clinical [1]; male, 32 mg): 324 ng·h/mL | CL renal (clinical [1]; male, 32 mg): 5 mL/min | Cmax (clinical [1]; male, 32 mg): 143 ng/mL | Tmax (clinical [1]; male, 32 mg): 1 h | Vd/F (clinical [1]; male, 32 mg): 269 L | half-life (clinical [1]; male, 32 mg): 1.28 h | AUC(0-inf) (clinical [1]; male, 64 mg): 813 ng·h/mL | AUC(0-t) (clinical [1]; male, 64 mg): 807 ng·h/mL | CL renal (clinical [1]; male, 64 mg): 4.5 mL/min | Cmax (clinical [1]; male, 64 mg): 349 ng/mL | Tmax (clinical [1]; male, 64 mg): 1 h | Vd/F (clinical [1]; male, 64 mg): 204 L | half-life (clinical [1]; male, 64 mg): 1.3 h | Response rate [2]: 16.7% | Number of subjects who died ([3]; 2 mg TID, 352 randomized, S241.3.006): 0 n (%) | Constipation ([3]; female): 23% | Constipation ([3]; male): 8% | CL/F ([4]; 8 mg): 2698 (77) mL/min | % Dose (urine) ([4]; male): 0.21 (91) % | AUC (0-last) ratio fed/fasted ([4]; male): 108% | AUC(0-inf) ratio fed/fasted ([4]; male): 104% | Cmax ratio fed/fasted ([4]; male): 79% | AUC(0-inf) ([4]; male, 8 mg): 77.6 (66) ng · h/mL | AUC(0-last) ([4]; male, 8 mg): 72.8 (72) ng · h/mL | CLr ([4]; male, 8 mg): 3.86 (90) mL/min | Cmax ([4]; male, 8 mg): 31.7 (58) ng/mL | Cmax decrease with high-fat meal ([4]; male, 8 mg): 21% | Tmax ([4]; male, 8 mg): 1.00 (0.50, 2.00) h | T½ ([4]; male, 8 mg): 1.43 (40) h | Vz/F ([4]; male, 8 mg): 309 (76) L | CYP3A5 mRNA (CYP3A5): doubled | half-life (clinical [5]; both, 16 mg): 1.35 h | Tmax (clinical [5]; both, 32 mg): 1 h | AUC (clinical [5]; both, 32 mg): 451 ng·h/mL | Cmax (clinical [5]; both, 32 mg): 216 ng/mL | half-life (clinical [5]; both, 32 mg): 1.22 h | Tmax (clinical [5]; female, 32 mg): 1 h | AUC (clinical [5]; female, 32 mg): 405 ng·h/mL | Cmax (clinical [5]; female, 32 mg): 210 ng/mL | half-life (clinical [5]; female, 32 mg): 1.08 h | Tmax (clinical [5]; female, po, 16 mg): 1 h | Tmax (clinical [5]; female, po, 32 mg): 1 h | AUC (clinical [5]; female, po, 32 mg): 433 ng·h/mL | Cmax (clinical [5]; female, po, 32 mg): 270 ng/mL | half-life (clinical [5]; female, po, 32 mg): 1.01 h | Tmax (clinical [5]; male, 32 mg): 1 h | AUC (clinical [5]; male, 32 mg): 354 ng·h/mL | Cmax (clinical [5]; male, 32 mg): 140 ng/mL | half-life (clinical [5]; male, 32 mg): 1.4 h | Tmax (clinical [5]; male, po, 16 mg): 1 h | Tmax (clinical [5]; male, po, 32 mg): 1.5 h | AUC (clinical [5]; male, po, 32 mg): 469 ng·h/mL | Cmax (clinical [5]; male, po, 32 mg): 161 ng/mL | half-life (clinical [5]; male, po, 32 mg): 1.44 h
